Reference: ChEMBL document CHEMBL1131556, “The discovery of orally available thrombin inhibitors: studies towards the optimisation of CGH1668” (Bioorg Med Chem Lett, 1998)
pKi: −log10 of the molar value.

Assays:
[1] = molecular target: Prothrombin (Homo sapiens, UniProt P00734); assay: In vitro binding affinity for human thrombin.
[2] = Activated partial thromboplastin time (APTT) was determined by the influence on doubling of a human clotting time assay; type: functional

| Structure (SMILES) | pKi [1] | Activity [2] |
| --- | --- | --- |
| CNC[C@H](CC1CCCCC1)Nc1ccncc1S(=O)(=O)N[C@@H](Cc1ccc(N)cc1)C(=O)N1CCC(CCF)CC1 | 7.48 | 2.8 µM |
| O=C([C@H](Cc1ccccc1)NS(=O)(=O)c1cnccc1N[C@H](CO)Cc1ccccc1)N1CCC(CCF)CC1 | 7.00 | 11.5 µM |
| COCCN(CCOC)C[C@H](Cc1ccccc1)Nc1ccncc1S(=O)(=O)N[C@@H](Cc1ccc(N)cc1)C(=O)N1CCC(CCF)CC1 | 7.72 | 3.7 µM |
| Nc1ccc(C[C@H](NS(=O)(=O)c2cnccc2N[C@H](CO)CC2CCCCC2)C(=O)N2CCC(CCF)CC2)cc1 | 7.74 | 2.6 µM |
| CCNC[C@H](Cc1ccccc1)Nc1ccncc1S(=O)(=O)N[C@@H](Cc1ccc(N)cc1)C(=O)N1CCC(CCF)CC1 | 7.00 | 3.2 µM |
| COc1ccc(C[C@H](NS(=O)(=O)c2cnccc2N[C@H](CO)Cc2ccccc2)C(=O)N2CCC(CCF)CC2)cc1 | 7.44 | 8.1 µM |
| COc1ccc(C[C@@H](C)Nc2ccncc2S(=O)(=O)N[C@@H](Cc2ccc(N)cc2)C(=O)N2CCC(CCF)CC2)cc1 | 7.82 | 9 µM |
| CNC[C@H](Cc1ccccc1)Nc1ccncc1S(=O)(=O)N[C@@H](Cc1ccc(N)cc1)C(=O)N1CCC(CCF)CC1 | 7.46 | 2.4 µM |
| O=C([C@H](Cc1ccc(F)cc1)NS(=O)(=O)c1cnccc1N[C@H](CO)Cc1ccccc1)N1CCC(CCF)CC1 | 7.19 | 11.7 µM |
| Nc1ccc(C[C@H](NS(=O)(=O)c2cnccc2N[C@@H](Cc2ccccc2)CN2CCC(O)CC2)C(=O)N2CCC(CCF)CC2)cc1 | 7.72 | 1.73 µM |
| Nc1ccc(C[C@H](NS(=O)(=O)c2cnccc2N[C@@H](Cc2ccccc2)CN2CCNC(=O)C2)C(=O)N2CCC(CCF)CC2)cc1 | 7.05 | 2.43 µM |
| Nc1ccc(C[C@H](NS(=O)(=O)c2cnccc2N[C@H](CO)Cc2ccccc2)C(=O)N2CCC(CCF)CC2)cc1 | 7.41 | 2.5 µM |
| Nc1ccc(C[C@H](NS(=O)(=O)c2cnccc2N[C@@H](Cc2ccccc2)CN2CCCCC2)C(=O)N2CCC(CCF)CC2)cc1 | 7.60 | 6.1 µM |
| CNc1ccc(C[C@H](NS(=O)(=O)c2cnccc2N[C@H](CO)Cc2ccccc2)C(=O)N2CCC(CCF)CC2)cc1 | 7.92 | 4.1 µM |
| Nc1ccc(C[C@H](NS(=O)(=O)c2cnccc2N[C@H](COCCO)Cc2ccccc2)C(=O)N2CCC(CCF)CC2)cc1 | 7.31 | 2.5 µM |
| Nc1ccc(C[C@H](NS(=O)(=O)c2cnccc2N[C@@H](Cc2ccccc2)CN2CCOCC2)C(=O)N2CCC(CCF)CC2)cc1 | 7.66 | 2.9 µM |
| Nc1ccc(C[C@H](NS(=O)(=O)c2cnccc2N[C@@H](Cc2ccccc2)CN2CCCC2)C(=O)N2CCC(CCF)CC2)cc1 | 7.32 | 3.4 µM |
| CCC1CCN(C(=O)[C@H](Cc2ccc(N)cc2)NS(=O)(=O)c2cnccc2N[C@H](CO)Cc2ccccc2)CC1 | 6.96 | 5.5 µM |
| CCCCNC[C@H](Cc1ccccc1)Nc1ccncc1S(=O)(=O)N[C@@H](Cc1ccc(N)cc1)C(=O)N1CCC(CCF)CC1 | 7.37 | 5.1 µM |
| CCCNC[C@H](Cc1ccccc1)Nc1ccncc1S(=O)(=O)N[C@@H](Cc1ccc(N)cc1)C(=O)N1CCC(CCF)CC1 | 7.33 | 3.3 µM |
| Nc1ccc(C[C@H](NS(=O)(=O)c2cnccc2N[C@H](CNCCO)Cc2ccccc2)C(=O)N2CCC(CCF)CC2)cc1 | 7.14 | 2 µM |
| COc1ccc(C[C@@H](CO)Nc2ccncc2S(=O)(=O)N[C@@H](Cc2ccc(N)cc2)C(=O)N2CCC(CCF)CC2)cc1 | 7.72 | 2.9 µM |
| Nc1ccc(C[C@H](NS(=O)(=O)c2cnccc2N[C@H](CO)Cc2ccccc2)C(=O)N2CCC(CCO)CC2)cc1 | 6.20 | 7.4 µM |
| CN(C)C[C@H](Cc1ccccc1)Nc1ccncc1S(=O)(=O)N[C@@H](Cc1ccc(N)cc1)C(=O)N1CCC(CCF)CC1 | 7.62 | 3.4 µM |
| CCN(CC)C[C@H](Cc1ccccc1)Nc1ccncc1S(=O)(=O)N[C@@H](Cc1ccc(N)cc1)C(=O)N1CCC(CCF)CC1 | 7.35 | 3.56 µM |
| C[C@H](Cc1ccccc1)Nc1ccncc1S(=O)(=O)N[C@@H](Cc1ccc(N)cc1)C(=O)N1CCC(CCF)CC1 | 7.74 | 7.1 µM |
| CC(=O)N1CCN(C[C@H](Cc2ccccc2)Nc2ccncc2S(=O)(=O)N[C@@H](Cc2ccc(N)cc2)C(=O)N2CCC(CCF)CC2)CC1 | 7.62 | 2.4 µM |
| COc1ccc(C[C@@H](CO)Nc2ccncc2S(=O)(=O)N[C@@H](Cc2ccc(N)cc2)C(=O)N2CCC(CCF)CC2)cc1OC | 7.31 | 2.5 µM |
| O=C([C@H](Cc1ccc(O)cc1)NS(=O)(=O)c1cnccc1N[C@H](CO)Cc1ccccc1)N1CCC(CCF)CC1 | 7.39 | 1.91 µM |
| Nc1ccc(C[C@H](NS(=O)(=O)c2cnccc2N[C@H](CO)Cc2ccccc2)C(=O)N2CCC(CCCl)CC2)cc1 | 7.57 | 4.4 µM |
